Measurements published in PMC6479099, “Aminoguanidines: New leads for treatment of Giardia duodenalis infection” (International Journal for Parasitology: Drugs and Drug …, 2019).
Converted amounts (≈) assume the structure as drawn. “Also recorded” adds a separate entry of the source.

Columns and labels:
[1] = tested on: Giardia duodenalis BAH12, assemblage B; assay: Resazurin reduction assay, assemblage B isolate; format: cell-based; details: BAH12, 24 h
Procedure: G. duodenalis (BAH2c2 and BAH12 strain) was cultivated according to the method of Clark and Diamond in Keister's modified TYI-S-33 medium, supplemented with heat inactivated foetal bovine serum (Hyclone™, Thermo Fisher Scientific, Scoresby, Victoria, Australia) at 37 °C in plastic 9 mL screw-capped test tubes (nunc, Thermo Fisher Scientific, Scoresby, Victoria, Australia). Subcultures were performed once a confluent monolayer was observed, approximately 2–3 times per week ([Clark and Diamond, 2002]).
The in-vitro compound efficacy was determined using a resazurin reduction assay as previously described ([Benere et al., 2007]). The media of confluent cultures was replaced with fresh media and the cultures were placed on ice for 40 min to detach trophozoites. Trophozoites were enumerated using a haemocytometer and 50 000 trophozoites were added to each test well of a 96 well plate. Doubling or tripling dilutions of the test compounds were added to wells beginning at 25 or 50 μM compound concentration (previously prepared in DMSO). Metronidazole and DMSO (vehicle only) were used as controls. Plates were incubated under anaerobic conditions, using anaerobic gas generating sachets, (AnaeroGen, Thermo Fisher Scientific, Scoresby, Victoria, Australia) for 24 h at 37 °C. After incubation the media was removed and replaced with an equal volume of warm PBS. Resazurin (Alamarblue, Thermo Fisher Scientific, Scoresby, Victoria, Australia) was then added at 10% of the total volume of the wells. Plates were further incubated (1.5 h) for colour development and absorbance read at 570 nm and 630 nm. The percentage resazurin reduction was then calculated using the following formula:((εoxi630 x A570) – (εoxi570 x A630))/((εred570 x C630)-([…])) x 100Where: εoxi630 = 34798, εoxi570 = 80586, A570 = absorbance at 570 nm, A630 = absorbance at 630 nm, εred570 = 155677, εred630 = 5494, C630 = absorbance of negative control well at 630 nm and C570 = absorbance of negative control well at 570 nm.
For the resazurin reduction assay the mean and standard error of the mean were determined with each assay completed in triplicate. The IC50 was calculated using the log (inhibitor) vs. normalised response – variable slope function in Graphpad Prism. For the adherence assay mean and standard error of the mean were calculated and data analysed using an unpaired t-test, relative to untreated control.
(§1) The IC50 of each compound was determined using a resazurin reduction assay, which measures the metabolic activity of cells, using the log (inhibitor) vs. normalised response – variable slope function in Graphpad Prism. The compounds were tested against an assemblage A (BAH2c2, 24 h) and an assemblage B (BAH12, 24 h) isolate (Table 1). […] The effect of the compounds on the proliferation of Giardia trophozoites (BAH2c2) was also determined.

[2] = tested on: Giardia trophozoites (BAH2c2); assay: Proliferation of Giardia trophozoites (resazurin, 96 h); format: cell-based, Giardia duodenalis; details: BAH2c2, 1000 trophozoites per well, read-out: IC50prol, Assemblage A (50% inhibition in the proliferation assay)
Procedure: The effect of the compounds on the proliferation of Giardia trophozoites was determined following the protocol outlined above, with the following modifications. The number of trophozoites was decreased to 1000 per well and the cells were incubated in the presence of each compound for 96 h at 37 °C.
as §1

[3] = In vitro cytotoxicity (WST-1), human lung fibroblast; format: cell-based; details: HEL 299 human lung fibroblast cells, 24 h exposure
Procedure: (§2) Cells were passaged every 3 days. Assays were performed in 96 well plates in duplicate. Wells were seeded with 50 000 cells.

[4] = In vitro cytotoxicity (WST-1), human hepatocellular carcinoma; format: cell-based; details: Hep G2 human hepatocellular carcinoma cells, 24 h exposure
Procedure: as §2

[5] = tested on: Giardia duodenalis trophozoites; assay: Modified adherence assay; format: cell-based; details: 4 μM, 5 h exposure
Procedure: (§3) A second screening method, based on counting adherent trophozoites, was developed and used to validate the primary screen method, modified from earlier adherence assay protocols ([Crouch et al., 1986]). The assay was prepared in 24 well plates with plastic coverslips placed in the bottom. Trophozoites were prepared as above by placing on ice and ∼5 × 10^5 cells/mL were added to each well. Drugs prepared in DMSO were added at the required concentration, with the DMSO concentration never exceeding 1%. Assay plates were incubated for 5 h at 37 °C under anaerobic conditions, the media removed and cells adhering to the coverslips were fixed with glutaraldehyde or methanol. Once the coverslips were dry, cells were stained with a Romanowsky stain variant (Rapid stain), fixed to a glass slide and imaged at 10x or 100x magnification. Images (10x magnification) were processed with DotCount v1.2 software (http://reuter.mit.edu/, 2008–2012 ^© Martin Reuter) to count the number of cells present and data analysed using GraphPad Prism version 6.00 for Windows, GraphPad Software, La Jolla California USA, www.graphpad.com. Images (100x magnification) were assessed for obvious morphological changes.
The results for the in vitro drug efficacy studies were analysed using GraphPad Prism version 6.00 for Windows, GraphPad Software, La Jolla California USA, www.graphpad.com. For the resazurin reduction assay the mean and standard error of the mean were determined with each assay completed in triplicate. The IC50 was calculated using the log (inhibitor) vs. normalised response – variable slope function in Graphpad Prism. For the adherence assay mean and standard error of the mean were calculated and data analysed using an unpaired t-test, relative to untreated control.
Fig. 3 Inhibition of adherence of Giardia duodenalis by metronidazole (Mz), robenidine, NCL 062 and NCL 099. Cells were exposed to the compounds for 5 h before staining. Stained cells were imaged at 10x magnification and counted using DotCount™ software. Each assay was completed in triplicate and 5 images taken per sample. Top. Number of adherent trophozoites after exposure to 4 μM of each compound for 5 h; Bottom. An example of the Dotcount software identifying trophozoites at higher magnification. Left: stained trophozoites, Right: highlighted trophozoites identified by the Dotcount software. Each highlighted cell is counted individually. Error ± SEM. * p-value <0.05, ** p-value <0.0001.

Giardia trophozoites = assay: Morphology of stained trophozoites at 100x magnification; format: cell-based, Giardia duodenalis; details: at IC50, 100 x magnification
Procedure: as §3
Fig. 4 Morphological effect of Robenidine and NCL 099 on Giardia trophozoites. Giardia trophozoites were exposed to each compound for 24 h before fixation with glutaraldehyde and staining following the Diff quik protocol. A-control cells, B – cells treated with metronidazole (IC50, 2 μM), C- robendine treated cells (IC50, 2 μM), D – NCL 099 treated cells (IC50, 3 μM), E − NCL 099 treated cells (2 x IC50).

[6] = In vitro cytotoxicity, murine macrophage cells; details: mouse

## N=C(N/N=C/c1ccc(Cl)cc1)N/N=C/c1ccc(Cl)cc1 [Robenidine, robenidine]
[1]
  MLC, Assemblage B: 16.6 µM (≈ 5.55 µg/mL)
[1]; Giardia duodenalis, resazurin metabolic assay
  IC50: 4.7 ± 0.6 µM
[2]
  IC50: 1.2 ± 0.7 µM
[3]
  GI50 at 24 h: 17.7 µM
[4]
  GI50 at 24 h: 25.5 µM
[5]
  Effect on adherence of trophozoites: complete inhibition of adherence
Giardia trophozoites
  Morphological effect on stained trophozoites at the IC50: decrease in the intensity of the membrane stain; also recorded: enlarged nuclei
[6]
  GI50: 17.1 µM
